From PMC7731310, “Pogostemon cablin Triggered ROS-Induced DNA Damage to Arrest Cell Cycle Progression and Induce Apoptosis on Human Hepatocellular Carcinoma In Vitro and In Vivo” (Molecules, 2020)
≈ marks a conversion by molar mass, not a printed value.

Key:
BNL CL.2 = experiment: MTT cell viability, BNL CL.2 normal liver cells; assay type: cell-based; conditions: Mus musculus, 48 hr, mean ± SD
Experimental: (§1) HCC cells (5 × 10^3/100 μL), SVEC, MDCK (1 × 10^4/100 μL), and BNL CL.2 cells (4 × 10^4/100 μL) were seeded in a 96-well plate. After incubating overnight at 37 ℃, the cells were treated with serially diluted drug concentrations for 24, 48, and 72 h. The cell viability was measured using an MTT assay.

HepG2 = experiment: MTT cell viability, HepG2; assay type: cell-based, Human; conditions: for IC50: Homo sapiens, HepG2, 48 hr, mean ± SD; for Selectivity index (SI) BNL CL.2/HepG2 / Selectivity index (SI) MDCK/HepG2 / Selectivity index (SI) SVEC/HepG: IC50 of normal cells/IC50 of HCC cells
Experimental: as §1

Mahlavu = experiment: MTT cell viability, Mahlavu; assay type: cell-based, Human; conditions: for IC50: Homo sapiens, Mahlavu, 48 hr, mean ± SD; for Selectivity index (SI) BNL CL.2/Mahlavu / Selectivity index (SI) MDCK/Mahlavu / Selectivity index (SI) SVEC/Mahlavu: IC50 of normal cells/IC50 of HCC cells
Experimental: as §1

Huh7 = experiment: MTT cell viability, Huh7; assay type: cell-based, Human; conditions: for IC50: Homo sapiens, Huh-7, Huh7, 48 hr, mean ± SD; for Selectivity index (SI) BNL CL.2/Huh7 / Selectivity index (SI) MDCK/Huh7 / Selectivity index (SI) SVEC/Huh7: IC50 of normal cells/IC50 of HCC cells
Experimental: as §1

MDCK = experiment: MTT cell viability, MDCK normal cells; assay type: cell-based, Canine; conditions: Canis lupus familiaris, 48 hr, mean ± SD
Experimental: as §1

J5 = experiment: MTT cell viability, J5; assay type: cell-based, Human; conditions: for IC50: Homo sapiens, J5, 48 hr, mean ± SD; for Selectivity index (SI) BNL CL.2/J5 / Selectivity index (SI) MDCK/J5 / Selectivity index (SI) SVEC/J5: IC50 of normal cells/IC50 of HCC cells
Experimental: as §1

SVEC = experiment: MTT cell viability, SVEC normal cells; assay type: cell-based; conditions: Mus musculus, 48 hr, mean ± SD
Experimental: as §1

HepG2 cells = experiment: Regrowth assay (crystal violet), HepG2; conditions: PPa extract 15 μg/mL, sorafenib 0.2 μg/mL, 4 and 8 days
Experimental: (§2) After that, both cell lines were analyzed for flow cytometry. […] During treatments, fresh drugs were changed every two days and harvested the data at 4 and 8 days. After treatment, cells were stained with 0.1% crystal violet and absorbance was measured at 550 nm after dissolving in 0.5% acetic acid. For detection of indicated protein expressions, cells (2 × 10^6) seeded at 10 cm dishes. […] Cell lysates were collected for western blot.

Mahlavu cells = experiment: Regrowth assay (crystal violet), Mahlavu; conditions: PPa extract 15 μg/mL, sorafenib 0.2 μg/mL, 4 and 8 days
Experimental: as §2

Row | SMILES | IC50 (BNL CL.2) [mg/L] | IC50 (HepG2) [mg/L] | IC50 (Mahlavu) [mg/L] | IC50 (Huh7) [mg/L] | IC50 (MDCK) [mg/L] | IC50 (J5) [mg/L] | IC50 (SVEC) [mg/L] | Selectivity index (SI) BNL CL.2/HepG2 (HepG2) | Selectivity index (SI) MDCK/HepG2 (HepG2) | Selectivity index (SI) SVEC/HepG (HepG2) | Selectivity index (SI) BNL CL.2/Mahlavu (Mahlavu) | Selectivity index (SI) MDCK/Mahlavu (Mahlavu) | Selectivity index (SI) SVEC/Mahlavu (Mahlavu) | Selectivity index (SI) BNL CL.2/Huh7 (Huh7) | Selectivity index (SI) MDCK/Huh7 (Huh7) | Selectivity index (SI) SVEC/Huh7 (Huh7) | Selectivity index (SI) BNL CL.2/J5 (J5) | Selectivity index (SI) MDCK/J5 (J5) | Selectivity index (SI) SVEC/J5 (J5) | also measured
1 | O=c1[nH]cc(F)c(=O)[nH]1 [5-FU, 5-Fluorouracil] | > 20 | 2.09 ± 1.63 (≈ 16.1 µM) | 15 ± 3.71 (≈ 115 µM) | 4.88 ± 3.37 (≈ 37.5 µM) | 8.74 ± 0.53 (≈ 67.2 µM) | 18.8 ± 0.91 (≈ 144 µM) | 1.69 ± 2.8 (≈ 13 µM) |  |  |  |  |  |  |  |  |  |  |  |  | 
2 | COc1cc([C@@H]2c3cc4c(cc3[C@@H](O[C@@H]3O[C@@H]5CO[C@@H](C)O[C@H]5[C@H](O)[C@H]3O)[C@H]3COC(=O)[C@H]23)OCO4)cc(OC)c1O [VP-16, Etoposide] | 6.43 ± 3.02 (≈ 10.9 µM) | 4.73 ± 3.57 (≈ 8.04 µM) | 4.54 ± 2.17 (≈ 7.71 µM) | 5.11 ± 2.08 (≈ 8.68 µM) | 3.38 ± 0.43 (≈ 5.74 µM) | 3.01 ± 2.75 (≈ 5.11 µM) | 1.85 ± 0.49 (≈ 3.14 µM) | 1.4 | 0.7 | 0.4 | 1.4 | 0.8 | 0.4 | 1.3 | 0.7 | 0.4 | 2.1 | 1.1 | 0.6 | 
3 | CNC(=O)c1cc(Oc2ccc(NC(=O)Nc3ccc(Cl)c(C(F)(F)F)c3)cc2)ccn1 [SOR, sorafenib] | 10.8 ± 5.17 (≈ 23.1 µM) | 3.52 ± 1.97 (≈ 7.57 µM) | 6.07 ± 1.06 (≈ 13.1 µM) | 1.77 ± 4.31 (≈ 3.81 µM) | 6.95 ± 1.45 (≈ 15 µM) | 2.39 ± 1.91 (≈ 5.14 µM) | 8.55 ± 2.73 (≈ 18.4 µM) | 3.1 | 2.0 | 2.4 | 1.8 | 1.1 | 1.4 | 6.1 | 3.9 | 4.8 | 4.5 | 2.9 | 3.6 | inhibition of cell regrowth (HepG2 cells): no inhibitory effect; inhibition of cell regrowth (Mahlavu cells): no inhibitory effect
